Where a name gives a salt, the structure may show the parent alone.
Legend:
[1] = test system: HeLa (human cervix carcinoma cells); assay: Phototoxicity in HeLa cells under irradiation at 662 nm, MTT assay; type: cell-based; conditions: 30-minute incubation, 10 J/cm^2 irradiation
Procedure: Illumination was performed at 662 nm (Ceralas PDT laser, BioLitec AG, Germany; 150 mW/cm^2, 5-20 J/cm^2) after a 30-minute incubation period. Cell survival was measured using the MTT assay. Values are expressed as percentages of illuminated, but non-incubated controls. Experiments were performed in octuplets.

[2] = concentrated (>1%) solution cannot be generated by Nakazato technique; cited from earlier work
[3] = 4° C. in the dark, cited from earlier work

## salt of pheophorbide a (5) with N-methyl-D-glucamine
[1]
  IC50 phototoxicity: 8.0 µg/mL
  IC90 phototoxicity: 22.0 µg/mL

## C=Cc1c(C)c2cc3nc(c4c5[nH]c(cc6nc(cc1[nH]2)C(C)=C6CC)c(C)c5C(=O)[C@@H]4C(=O)OC)[C@@H](CCC(=O)O)[C@@H]3C [sodium salt of pheophorbide a (4), sodium salt of pheophorbide a]
[2]
  concentration of injectable solution in water that can be generated: ≤ 1%

## trisodium lysyl-chlorin p6
[3]; aqueous solution
  stable in an aqueous solution: ≤ 24 h
[3]; solid form
  stable in solid form: up to 4 months
